Consider 6 compounds from patent US20250319068A1, “TREATMENT OF DISEASES VIA ADMINISTRATION OF BUNTANETAP AND AN […] AGENT” (ANNOVIS BIO, INC., priority 2024, published 2025).

Structures are written as SMILES. Entries after “also recorded” stand apart in the source; their conditions may differ. Where two headings read alike, the source gives them in different places. Bounds are passed on as bounds.

The subject of data set [1] is dementia with Lewy bodies (DLB) in men. The following applies: cited from earlier work; for risk of DLB lower compared to 5ARIs / risk of DLB lower compared to tamsulosin: terazosin, doxazosin, or alfuzosin pooled.
The subject of data set [2] is Ts65dn mouse model of Down Syndrome (DS). Particulars: cited from earlier work.
Data set [3] deals with early AD patients and early PD patients. The following applies: cited from earlier work.
Data set [4] deals with tau. Particulars: Human tau mice; unpublished observation; cited from earlier work.
For data set [5], the system named is αSYN. The following applies: transgenic Parkinson's animals; cited from earlier work.
Data set [6] concerns CSF levels of sAPPα, sAPPβ, Aβ42, Tau (total and phosphorylated), alpha-synuclein and inflammatory markers. The following applies: cited from earlier work.
The conditions of data set [7]: cited from earlier work.
The subject of data set [8] is tau. The following applies: unpublished observation, Peter Davies Laboratory; cited from earlier work.
The subject of data set [9] is human SNCAA53T tg mouse model of PD. The following applies: cited from earlier work.
In data set [10] the test system is αSYN. Particulars: neuroblastoma cells; cited from earlier work.
The nature of data set [11]: Phase 1 single and multiple ascending dose safety, tolerance, pharmacokinetic studies. Particulars: pharmacokinetic analyses of Phase I studies.
Method: This publication reported the results of a Phase 2a Clinical Study which was a double-blind, placebo-controlled, multi-center study of 14 early AD patients and 54 early PD patients. AD patients were given either 80 mg buntanetap or placebo QD. PD patients were given 5 mg, 10 mg, 20 mg, 40 mg, 80 mg buntanetap or placebo QD. The primary endpoint was safety and tolerability; secondary endpoint is pharmacokinetics of buntanetap in plasma.
The double phase 2 clinical trial recruited 14 AD (Alzheimer's disease) and 54 patients and treated them over 25 with a once daily dose of buntanetap. The 14 AD patients receive either 80 mg QD or placebo, whereas the 54 PD (Parkinson's disease) patients received 5, 10 20, 40 80 mg QD or placebo.
The subject of data set [12] is fully differentiated Down syndrome nerve cells. The following applies: cited from earlier work.
The subject of data set [13] is patients with mild to moderate AD. Nature of the data set: Phase II/III trial in mild to moderate AD, 12 weeks (NCT05686044). In kind it is in vivo, human. The method, then:
A randomized, double-blind, placebo-controlled Phase II/III study trial investigating the efficacy, safety, and tolerability of buntanetap in patients with mild to moderate AD was conducted. This was a dose-ranging study where patients received either one of three doses of buntanetap (7.5 mg, 15 mg, or 30 mg) or placebo on top of their standard of care for 12 weeks. In this study, over 700 patients were screened, a total of 353 patients were enrolled, and 325 patients completed the study across 54 sites in the US. The study included mild to moderate AD patients whose Mini Mental State Examination (MMSE) scores at baseline ranged from 14 to 24. (www.clinicaltrials.gov (NCT05686044)).
Beyond safety, the trial assessed the changes in two co-primary endpoints: Alzheimer's Disease Assessment Scale-Cognitive Subscale 11 (ADAS-Cog 11) and Alzheimer's Disease Cooperative Study Clinician's Global Impression of Change (ADCS-CGIC), which assess cognition and activities of daily living. The study monitored for safety and collected plasma to measure several biomarkers to assess the disease state, potential disease progression, and treatment effects.
The treatment response in the current study was not related to a patient's age or sex.
EOT-End of Treatment *P<0.05; **P<0.01; ***P<0.001.
When the baseline MMSE scores for patients positive for AD according to their pTau217/tTau >4.2% ratio were subdivided, a dose-dependent relationship to MMSE at baseline was observed. It was concluded that the response to buntanetap treatment is more pronounced in mild AD patients than in those with more advanced AD. The response in the 30 mg dose treatment group R2=0.17 (R^2 or the coefficient of determination), p <0.001, indicates statistical significance of the MMSE score, which was not evident in the placebo group.

Data set [14] has as its system traumatic brain injury rats. Particulars: cited from earlier work.
Data set [15] deals with APP and its fragments. The following applies: APP/PS1 transgenic mice; cited from earlier work.
The test system of data set [16] is APP. Put plainly: APP in vitro, Western blot in SH-SY-5Y cells (FIG. 1). In kind it is cell-based. The following applies: SH-SY-5Y human neuroblastoma cells; 0, 0.1, 1, 5 and 10 μM.
For data set [17], the system named is APP. Particulars: neuroblastoma cells; cited from earlier work.
The subject of data set [18] is APP/PS1 transgenic (tg) mouse model of AD. The following applies: cited from earlier work.
Data set [19] concerns Huntingtin Protein. The following applies: through Translational Suppression; cited from earlier work.
Data set [20] relates to APP and its fragments. Put plainly: APP in vivo in APP/PS1 transgenic AD mice, hippocampus (FIG. 2A). Details: species or system mouse. The source says: FIG. 2A is a Table, collection of graphs and a Western blot showing that buntanetap treatment of APP/PS1 transgenic AD mice reduced APP and its fragments in hippocampus.
FIG. 2A, APP in vivo. […] GAPDH and Synaptophysin were loading controls. FIG. 2 also includes a collection of graphs showing relative density of APP plotted against control and time after buntanetap treatment; relative density of CTFβ plotted against control and time after buntanetap treatment; relative density of CTFα plotted against control and time after buntanetap treatment; Aβ42 levels in brain tissue plotted against control and time after buntanetap treatment; and Aβ40 levels in brain tissue plotted against control and time after buntanetap treatment. Finally, FIG. 2 also includes a Western blot showing levels of APP, NSB, CTFβ, and CTFα after buntanetap treatment over time (minutes).

Data set [21] has as its system rat acute glaucoma model. The following applies: cited from earlier work.
Data set [22] has as its system CSF levels of sAPPα, sAPPβ, Aβ42, Tau (total and phosphorylated), alpha-synuclein and inflammatory markers. Put plainly: Study of MCI subjects: CSF biomarkers before and after 10 days of buntanetap. Particulars: before and after 10 days of administration.
From the text: FIG. 3 is a study of subjects with mild cognitive impairment (MCI) for early proof of mechanism (POM) using a well-tolerated dose of buntanetap. Before and after 10 days of buntanetap administration to the MCI subjects, plasma, and cerebrospinal fluid (CSF) samples were obtained for analysis of levels of secreted(s) APPα and APPβ, and Aβ42, Tau (total and phosphorylated), and inflammatory markers.
The conditions of data set [23]: clinical studies; cited from earlier work.
The mark [24] stands for this setting: men newly started on terazosin, doxazosin, or alfuzosin (pooled) vs matched men taking tamsulosin.

For `COc1cc2nc(N(C)CCCNC(=O)C3CCCO3)nc(N)c2cc1OC` (stereo not drawn) [alfuzosin], the “hazard ratio [HR] of developing DLB” value in data set [1] (setting [24]) was 0.60. In data set [1], the “risk of DLB lower compared to 5ARIs” value is reported as 37% and the “risk of DLB lower compared to tamsulosin” value is listed as 40%. The “hazard ratio [HR] of developing DLB” value in [1] (vs matched men taking 5ARI) is listed as 0.73.
`CN1CC[C@]2(C)c3cc(OC(=O)Nc4ccccc4)ccc3N(C)C12` (stereo partly drawn) [Buntanetap, (3aR)-1,3a,8-trimethyl-1,2,3,3a,8,8a-hexahydropyrrolo[2,3-b]indol-5-yl phenylcarbamate]: the memory and learning result in data set [2] is “Restored memory and learning”. In data set [3] (AD and PD cohorts), the “axonal integrity and synaptic function” value is “improving; also recorded: improved”; the “inflammatory factors / markers” value was “trend in lowering levels; also recorded: reduced”; the neurotoxic protein biomarkers entry is “trend in lowering levels; also recorded: reduced”. For the same compound, in data set [3] (AD and PD patients, doses up to 80 mg), the safety and tolerability entry is “well tolerated; also recorded: safe and promising”. In addition, the “crossing of the blood brain barrier” value in [3] (AD and PD patients) is “crossed the blood brain barrier”. Besides, in data set [3] (AD patients, 80 mg QD), the “ADAS-Cog11 and WAIS coding (cognition)” value was “statistically significant improvements; also recorded: improved cognition”. Moreover, the “motor function as measured by MDS-UPDRS (Part II, III, IV and total)” value in [3] (PD patients, 5-80 mg QD, maximum improvement for 10 & 20 mg) was “improved at all doses motor function”. Moreover, in [3] (PD patients), the “MDS-UPDRS and WAIS coding” value is given as “statistically significant improvements”; the “WAIS speed and accuracy” value is “improved”. In data set [3] (plasma, up to 80 mg QD), the “Cmax and AUC” value is “increased with dose without evidence for a plateau”. Further, the tau in vivo result in [4] is listed as “lowers tau”. The “αSYN in vivo in the brain and in the gut” value in [5] is on record as “lowers αSYN”. Besides, the “duration of effect in lowering neurotoxic proteins and inflammation after the last dose” value in [6] (CSF sampling period after the last dose) is no less than 12 h. Also, in [6] (MCI subjects, 4×60 mg/day), the “levels of APP, Tau, and αSYN in the cerebrospinal fluid (CSF)” value is given as “normalized”. In addition, in data set [6] (MCI subjects), the “half-life in CSF” value is greater than 12 h and the “inflammation in human CSF” value is “lowered inflammation”. In addition, in [6] (five MCI subjects), the “CSF Aβ42” value is recorded as “trend to lower”; the “CSF levels of sAPPα, sAPPβ, t-tau, p-tau, and specific inflammatory markers” value was “significantly lowered”. For the same compound, the tolerability entry in [7] (healthy human volunteers, doses up to 4×60 mg daily X 10 days) was “well tolerated”. Also, the terminal half-life in data set [7] (plasma, cleared biphasically) is 4.3 to 4.7 h. For the same compound, in data set [8], the tau in vitro result is reported as “lowers tau”. In addition, the colonic motility entry in data set [9] was “Restored colonic motility”. Also, the αSYN in vitro entry in data set [10] is listed as “lowers αSYN”. In addition, the “brain concentration relative to plasma” value in data set [11] is on record as “about 8 times”. In addition, the “anterograde and retrograde vesicle transport” value in data set [12] was “Normalized anterograde and retrograde vesicle transport”. Moreover, in data set [13] (7.5 mg), the “Non-Responders (Number)” value was 5, the “Non-Responders (Percentage)” value is “(26.32%)”, the “Responders (Number)” value is listed as 14 and the “Responders (Percentage)” value is on record as “(73.68%)**”. Further, in [13] (15 mg), the “Non-Responders (Number)” value was determined as 7, the “Non-Responders (Percentage)” value is “(28.00%)”, the “Responders (Number)” value amounted to 18 and the “Responders (Percentage)” value is reported as “(72.00%)**”. For the same compound, in data set [13] (30 mg), the “Non-Responders (Number)” value came out at 3, the “Non-Responders (Percentage)” value is “(12.50%)”, the “Responders (Number)” value came to 21 and the “Responders (Percentage)” value was “(87.50%)***”. In [13] (30 mg group), the “difference in the proportion of participants who improved relative to placebo” value is on record as “three-fold difference”. For the same compound, the “ADAS-Cog 11 scores relative to placebo” value in [13] (patients with mild AD, each treatment dose) is “significantly higher improvement”. Also, in data set [14] (after TBI), the “inflammation in the rat brain” value is on record as “lowered inflammation” and the “nerve cell protection in rat substantia Ingra” value was “protected nerve cells”. Moreover, the “synaptic transmission in rat striatum” value in data set [14] (after traumatic brain injury (TBI)) is listed as “Normalized impaired synaptic transmission”. The memory and learning entry in [14] (traumatic brain injury rats) was “Preserved memory and learning”. Besides, the “levels of APP and all its fragments” value in [15] was “lowers levels of APP and all its fragments”. Also, the “APP in relation to Actin standard (Western blot)” value in data set [16] is “lowers APP in vitro in a dose-dependent manner”. The “levels of APP in vitro” value in data set [17] is listed as “lowers levels of APP”. For the same compound, the “synaptic transmission in hippocampus” value in data set [18] (APP/PS1 tg mice) is reported as “Normalized impaired synaptic transmission”. Besides, in data set [18] (APP/PS1 tg mouse model of AD), the memory and learning result was “Restored memory and learning”. Moreover, the “levels of Huntingtin Protein” value in data set [19] is on record as “reduced the levels of Huntingtin Protein”. For the same compound, the “duration of reduction of APP and all related peptides in hippocampus after the last dose” value in data set [20] (APP/PS1 mice) was “at least 9 hours”. In addition, the “APP and its fragments in hippocampus” value in data set [20] (APP/PS1 transgenic AD mice) was “reduced”. Moreover, the retina result in data set [21] (acute glaucoma) is reported as “Preserved the retina”. In [21] (rat acute glaucoma model), the nerve cell protection result is “protected nerve cells”. The “APP/Aβ, tau/phosphor-tau and alpha-synuclein in the spinal fluid (FIG. 3)” value in data set [22] is on record as “normalized”.
For `COc1cc2nc(N3CCN(C(=O)C4COc5ccccc5O4)CC3)nc(N)c2cc1OC` (stereo not drawn) [doxazosin], in data set [1] (setting [24]), the “hazard ratio [HR] of developing DLB” value is 0.60. Further, in data set [1], the “risk of DLB lower compared to 5ARIs” value is on record as 37% and the “risk of DLB lower compared to tamsulosin” value is on record as 40%. In data set [1] (vs matched men taking 5ARI), the “hazard ratio [HR] of developing DLB” value was 0.73.
`CN1CC[C@@]2(C)c3cc(OC(=O)Nc4ccccc4)ccc3N(C)[C@@H]12` [phenserine, (−)-N-phenylcarbamoyl eseroline]: in [23], the side effects result is on record as “high cholinomimetic side effects”.
Take `CCOc1ccccc1OCCN[C@H](C)Cc1ccc(OC)c(S(N)(=O)=O)c1` [tamsulosin]: in data set [1] (vs matched men taking 5ARI), the “hazard ratio [HR] of developing DLB” value was 1.17.
`COc1cc2nc(N3CCN(C(=O)C4CCCO4)CC3)nc(N)c2cc1OC` (stereo not drawn) [terazosin]: the figures for the “hazard ratio [HR] of developing DLB” value in [1] (setting [24]) and in data set [1] (vs matched men taking 5ARI) were 0.60 and 0.73, respectively. Moreover, the “risk of DLB lower compared to 5ARIs” value in data set [1] is 37%. For the same compound, the “risk of DLB lower compared to tamsulosin” value in data set [1] is given as 40%.
